Consider 4 molecules from PMC12456999, “Sulfonyl Homoserine Lactones Are Tunable Probes to Inhibit the Quorum Sensing Receptor RhlR and Reduce Swarming Motility in Pseudomonas aeruginosa” (ACS Infectious Diseases, 2025).

The test system of one experiment is P. aeruginosa PAO1. As to the kind of experiment: Swarming motility assay. Conditions: PAO1 + DMSO = 100%, PAO1 ΔrhlR + vehicle = 0%; for reduction in swarming activity relative to the controls: compound at 500 μM. It is filed as cell-based, Pseudomonas aeruginosa. From the text: We next evaluated the ability of the four sulfonyl HLs 39, 43, 59, and 75 capable of inhibiting RhlR in the P. aeruginosa reporter to reduce swarming motility in a wild-type P. aeruginosa strain (PAO1). Swarming is a rapid, group-coordinated movement of a bacterial population across a semisolid surface, linked to increased expression of virulence factors and increased antibiotic resistance and regulated in P. aeruginosa, at least in part, by the Rhl system. The results of these phenotypic assays are shown in Figure (see Methods for protocol). The swarming ability of PAO1 in the presence of vehicle (DMSO) served as a positive control (set to 100%). As a key negative control, we examined the swarming ability of a PAO1 ΔrhlR mutant in the presence of the vehicle and observed […] relative to the positive control (set to 0%).
5 Swarming motility assay data in P. aeruginosa. […] Area of the colony after 42 h incubation was used to calculate swarming activity (see Methods). Positive control = PAO1 treated with vehicle (DMSO, 100%). Negative control = PAO1 ΔrhlR treated with vehicle (0%). Error bars = standard deviation of the means of triplicate samples. (B) Representative images of P. aeruginosa swarming on agar plates used to generate data in panel A.
The motility assay was based in part on a previously reported procedure. P. aeruginosa PAO1 was grown overnight with 500 or 250 μM compound, or vehicle (DMSO), at 37 °C and normalized to OD600 = 0.4. Cells were washed with sterile water twice and resuspended with 500 (39, 43, and 59) or 250 (75) μM fresh compound or vehicle (DMSO), in M8 minimal medium. Cells (5 μL) were spotted in the center of agar plates (100 mm diameter) generated from M8 minimal medium + 1 mM MgSO4 + 0.2% glucose + 0.5% Casamino acids + 0.5% agar. Plates were covered and the cells were grown for 24–48 h at 37 °C prior to imaging (using an iPhone 14 camera). Photographs were analyzed using ImageJ to calculate the area of the swarm and normalized to the area of (P. aeruginosa PAO1 + vehicle) – (P. aeruginosa PDO111 (ΔrhlR) + vehicle).

Another experiment deals with T1, RhlR (Pseudomonas aeruginosa, UniProt P54292).
T1 construct: expressed in transfected cells; host or cells: E. coli JLD271 (K-12 ΔlacX74 sdiA271::Cam) carrying pJN105-R2 (RhlR expression) and pSC11-rhlI (rhlI'-lacZ reporter)
Briefly: E. coli (JLD271) RhlR reporter antagonism assay, in competition with BHL. As to conditions: for max. RhlR inhibition (%): BHL at 10 μM set to 0%, media control set to 100%. The experiment is classed as cell-based. Here is the method:
To start, the sulfonyl HLs were evaluated for their ability to antagonize RhlR using a previously described E. coli strain (JLD271) harboring a RhlR expression plasmid and a rhlI reporter plasmid. This E. coli reporter produces RhlR, and protein activity in the presence of an added small molecule can be measured via the production of β-galactosidase as quantified via luminescence (see Methods). Compounds were screened in competition against RhlR’s native ligand, BHL (at its EC50 value in this strain, 10 μM), over a range of concentrations to generate antagonism dose–response curves (see Supporting Information) and calculate IC50 values (listed in Table ). A small set of compounds was also screened for RhlR agonism in the E. coli reporter; the agonism assay format was identical to the antagonism assay, except no BHL was added.
RhlR activity in E. coli strain JLD271 (ΔsdiA) was measured via a β-galactosidase reporter (rhI-lacZ) using the Promega Beta-Glo Assay System as previously described. RhlR activity in P. aeruginosa PA14 (ΔrhlIΔlasI) was measured via a GFP reporter (rhlA-gfp). […] See Supporting Information for both reporter protocols.
Supporting Information — Aguirre-Figueroa et al.
E. coli and P. aeruginosa RhlR reporter assay protocols.
E. coli RhlR reporter assay. RhlR activity in E. coli strain JLD271 (ΔsdiA) was measured via a β-galactosidase reporter using the Promega Beta-Glo® Assay System as previously described.10 A schematic of the reporter plasmids and assay protocol is shown in Scheme S1. Briefly, a single colony of E. coli JLD271 harboring the RhlR expression plasmid pJN105-R and the rhlI-lacZ transcriptional fusion reporter pSC11-R (Table S1) was grown in LB medium with 100 μg/mL ampicillin and 10 μg/mL gentamicin overnight (~16 h). The culture was diluted 1:10 in fresh LB medium and grown to an OD600 = 0.25 (0.23–0.28) (~0.5 h). Arabinose was added to a final concentration of 4 mg/mL to induce the expression of pJN105-R. Aliquots (2 μL) of compound DMSO stock solution or serial dilution were added to the inner wells (i.e., non-periphery rows) of a 96-well microtiter plate. To six inner wells, DMSO alone (vehicle) was added as a negative control. For agonism assays, BHL was added to six inner wells as a positive control (to achieve 1 mM). For antagonism assays, BHL was added to six inner wells as a positive control and to all of the other sample wells except for the vehicle control wells (to achieve 10 μM ). Subculture (198 μL) was then dispensed into each inner well. To the outer (periphery) wells, 200 μL of water were added to maintain humidity during incubation. Plates were then incubated for 4 h (shaking) at 37 °C.
Scheme S1. Schematic of E. coli reporter plasmids and assay. (A) Representation of plasmids used in the heterologous reporter system. (B) General reporter assay workflow. BioRender used in […]
After the incubation period, the OD600 of each well was measured using a plate reader. Cell dilution plates were prepared by transferring 10 μL from the incubated culture plate wells to a fresh 96-well plate and adding 90 μL of 18 MΩ water to each well. Next, 10 μL aliquots of diluted Beta-Glo® reagent (1:2 with 18 MΩ water) were added to each well of a white 384-well microtiter plate, followed by 10 μL of culture from each well of the dilution plate. The 384-well plate was incubated (without shaking; i.e., static) for 30 min at 30 °C. After incubation, luminescence of each well was measured using a plate reader. To determine levels of RhlR activity, raw luminescence was divided by OD600 to correct for growth variation and then normalized to the negative (0%) and positive (100%) control wells.
Dose-response reporter assay data for compounds in the E. coli RhlR reporter.
Dose-response curves for RhlR antagonism by compounds against 10 μM BHL using the E. coli JLD271 RhlR reporter are provided below. Compound names are indicated on the x-axis of each plot.
All assays performed in triplicate as at least three separate biological replicates. […]

The mark [1] stands for this setting: IC50, E. coli JLD271 RhlR reporter, against 10 μM BHL.

Where two headings read alike, the source gives them in different places. A value given as a limit tells only on which side of the number the result lay.

T1 sequence (P54292 whole entry): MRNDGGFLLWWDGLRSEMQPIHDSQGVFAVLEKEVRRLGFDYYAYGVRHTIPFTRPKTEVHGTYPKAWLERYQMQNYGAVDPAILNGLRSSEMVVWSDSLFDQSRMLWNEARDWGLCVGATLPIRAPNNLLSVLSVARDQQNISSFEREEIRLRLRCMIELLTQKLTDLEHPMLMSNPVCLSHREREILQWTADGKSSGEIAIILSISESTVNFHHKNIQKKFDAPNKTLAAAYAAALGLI

For the molecule `O=C1OCC[C@@H]1NS(=O)(=O)c1cccc(Br)c1` [Compound 39, 3-bromo BSHL], in the experiment with P. aeruginosa PAO1, the “reduction in swarming activity relative to the controls” value came to 60%. For the same molecule, the “fold more potent than 4-bromo BSHL (35)” value at RhlR (E. coli RhlR reporter IC50) is listed as around 6 fold. On RhlR (E. coli RhlR reporter), the “max. RhlR inhibition (%)” value is reported as 90%. Besides, the IC50 on RhlR (setting [1]) amounted to 29.9 µM.
Turning to `O=C1OCC[C@@H]1NS(=O)(=O)c1ccc(Cl)c(Cl)c1` [Compound 43, 3,4-di-Cl BSHL], the “reduction in swarming activity relative to the controls” value with P. aeruginosa PAO1 was 60%. This molecule registered a potency gain on RhlR (33 vs 16, 43 vs 24, 86 vs 45, E. coli RhlR reporter IC50) of at most 40 fold. The “fold lower IC50 value than 3-Cl BSHL (28)” value on RhlR (E. coli RhlR reporter IC50) is listed as “over 2 fold”. Also, the “max. RhlR inhibition (%)” value at RhlR (E. coli RhlR reporter) amounted to 99%. In addition, the IC50 on RhlR (setting [1]) was determined as 54.3 µM.
On to `O=C1OCC[C@@H]1NS(=O)(=O)c1ccc(F)c(F)c1` [Compound 59, 3,4-di-F BSHL], for which the “reduction in swarming activity relative to the controls” value in the experiment on P. aeruginosa PAO1 is on record as 60%. Moreover, the “max. RhlR inhibition (%)” value on RhlR (E. coli RhlR reporter) amounted to 87%. The molecule further had an IC50 at RhlR (setting [1]) of 87.8 µM.
Consider `CCCCCS(=O)(=O)N[C@H]1CCOC1=O` [Compound 75, C5 ASHL], for which the reduction in swarming in the experiment with P. aeruginosa PAO1 (compound at 250 μM) amounted to 30%. Moreover, the IC50 on RhlR (E. coli JLD271 RhlR reporter, against 10 μM BHL) is 20.6 µM; on RhlR (read-out: inhibitory potency on average (74, 75 and 18), average over the C4, C5 and C6 ASHLs, E. coli RhlR reporter), around 28 µM. For the same molecule, the “max. RhlR inhibition (%)” value at RhlR (E. coli RhlR reporter) came to 84%.
